Laboratory results from BindingDB's records for doi:10.1016/S0960-894X(00)80673-3 (1993).

Target: HIV-2 protease (Human immunodeficiency virus 2)
Assay: Tested for the inhibition of HIV-2 protease

Ki: 65 nM
Structure (SMILES): CCC(C)[C@H](NC(=O)[C@@H](C[C@H](O)[C@H](CC1CCCCC1)NC(=O)[C@H](CC(N)=O)NC(=O)c1ccc2ccccc2n1)C(C)C)C(=O)NCc1ccccn1 (stereo partly drawn) [(S)-N*1*-((1S,2S,4S)-1-Cyclohexylmethyl-2-hydroxy-5-methyl-4-{(S)-2-methyl-1-[(pyridin-2-ylmethyl)-carbamoyl]-butylcarbamoyl}-hexyl)-2-[(quinoline-2-carbonyl)-amino]-succinamide]
